Legend:
[1] = tested on: human peripheral blood neutrophils; assay: Inhibition of fMLP-induced neutrophil chemotaxis (48-well microchemotaxis chamber, leading-front method); type: cell-based; details: for IC50: read-out: Inhibition of the migration of neutrophils induced by fMLP CI50; for Percentage in brackets after the fMLP CI50 bound: meaning of the percentage not explained
Method: (§1) The inhibitory activity of the compounds according to the present invention towards fMLP- or CXCL8-induced chemotaxiswas evaluated following methods described in the literature (Giordano, C. et al., Bioorg. Med. Chem. 2006, 14, 2642 and documents cited in such article).
(§2) Cells were obtained from blood of healthy subjects and human peripheral blood neutrophils were purified by using the standard techniques of dextran sedimentation (Pharmacia, Uppsala, Sweden), centrifugation on Ficoll-Paque (Pharmacia) and hypotonic lysis of contaminating red blood cells. The cells were washed twice and resuspended in Krebs-Ringer (KRPG) phosphate, pH 7.4, at a final concentration of 50 x 10^6 cells/ml and kept at room temperature until used. The neutrophils were 98-100% viable, as determined using the Trypan blue exclusion test.
(§3) The f-MLP-OMe and the compounds to be tested (10-^2M) were dissolved in dimethylsulfoxide (DMSO) while CXCL8 (10^-5 M) was dissolved in water. All solutions were diluted in KRPG before use to obtain the final concentration required by the experimental protocol.
(§4) A random locomotion test was carried out with a 48-well microchemotaxis chamber (Bio Probe, Milan) and migration into the filter was evaluated by the leading-front method (Gennari, C. et al, Eur. J. Org. Chem. (1998), p. 945) by estimating the distance in micrometres which the leading edge of the cell migrated. The actual control random movement is 35 ± 3 µm SE of six separate experiments carried out in duplicate.
(§5) The directional movement or chemotaxis was measured with the same chamber used for the random locomotion, adding fMLP-OMe 10^-9 M or CXCL8 10^-8 M in the lower compartment.
(§6) Each compound to be tested was added in the upper compartment of the chemotaxis chamber, diluted at concentrations varying from 10^-15 to 10^-5 M with KRPG containing 1 mg/ml of bovine serum albumin (BSA; Orha Behringwerke, Germany).
(§7) The neutrophils were pre-incubated with the compounds to be tested ten minutes before the functional test. The data was expressed in terms of chemotactic index (C.I.), which is the ratio (migration towards test attractant - migration towards the buffer)/migration towards the buffer.
(§8) The antagonism was measured as C.I. in the absence (100%) and in the presence of the compound to be tested at different concentrations. CI50 values were calculated from the sigmoid dose-response curve by a nonlinear regression analysis (Graph Pad Prism, San Diego, USA).
(§9) The values are means of six separate experiments carried out twice. The standard errors are in the range of 0.02-0.09 C.I.

[2] = tested on: human peripheral blood neutrophils; assay: Inhibition of IL8 (CXCL8)-induced neutrophil chemotaxis (48-well microchemotaxis chamber, leading-front method); type: cell-based; details: CXCL8 10^-8 M in lower compartment, neutrophils pre-incubated ten minutes with compound, means of six experiments, read-out: Inhibition of the migration of neutrophils induced by IL8 CI50
Method: as §1, §2, §3, §4, §5, §6, §7, §8, §9

[3] = fMLP-OMe 10^-9 M in lower compartment, neutrophils pre-incubated ten minutes with compound, means of six experiments
[4] = Homo sapiens, Neutrophil, fMLP-OMe 10^-9 M, unit µM, highest tested concentration 10^-5 M
[5] = Homo sapiens, Neutrophil, fMLP-OMe 10^-9 M in lower compartment, neutrophils pre-incubated ten minutes with compound, means of six experiments

IC50 ([2]; Homo sapiens, Neutrophil) [nM] | IC50 [1, 5] [µM] | SMILES | further results
 |  | CCOC(=O)c1cnn(CC(O)CC)c1NC(=O)NN1CCN(Cc2ccccc2)CC1 (centres unmarked) [Ik, 1-(2-hydroxybutyl)-5-[3-(4-benzyl)piperazinylureido)-1H-pyrazole-4-carboxylic acid ethyl ester] | IC50 [1, 3]: 2 ± 0.2 µM
0.0042 ± 0.0007 |  | CCOC(=O)c1cnn(CC(O)CC)c1NC(=O)NC(C)C (centres unmarked) [Ii, 1-(2hydroxybutyl)-5-(3-isopropylureido)-1H-pyrazole-4-carboxylic acid ethyl ester] | IC50 [1, 4]: > 10 µM; Percentage in brackets after the fMLP CI50 bound ([1]; fMLP-OMe 10^-9 M): 52%
0.0032 ± 0.0001 | 0.00043 ± 5e-05 | CCCC(O)Cn1ncc(C(=O)OCC)c1NC(=O)NCc1ccccc1 (centres unmarked) [Iq, 1-(2-hydroxypentyl)-5-(3-benzylureido)-1H-pyrazole-4-carboxylic acid ethyl ester] | 
 |  | CCCC(O)Cn1ncc(C(=O)OCC)c1NC(=O)NN1CCN(Cc2ccccc2)CC1 (centres unmarked) [Ir, 1-(2-hydroxypentyl)-5-[3-(4-benzyl)piperazinylureido)-1H-pyrazole-4-carboxylic acid ethyl ester] | IC50 [2]: 0.09 ± 0.004 nM; IC50 [1, 3]: 0.0011 ± 0.0001 µM
1 ± 0.05 | 0.02 ± 0.0022 | CCCC(O)Cn1ncc(C(=O)OCC)c1NC(=O)NC(C)C (centres unmarked) [Ip, 1-(2-hydroxypentyl)-5-(3-isopropylureido)-1H-pyrazole-4-carboxylic acid ethyl ester] | 
 | 0.09 ± 0.0093 | CCOC(=O)c1cnn(CC(C)O)c1NC(=O)NC(C)C (centres unmarked) [Ib, 1-(2-hydroxypropyl)-5-(3-isopropylureido)-1H-pyrazole-4-carboxylic acid ethyl ester] | 
0.0076 ± 0.001 | 0.0078 ± 0.00052 | CCOC(=O)c1cnn(CC(O)c2ccccc2)c1NC(=O)Nc1cccc2ccccc12 (centres unmarked) [Ia, 1-(2-hydroxy-2-phenylethyl)-5-[3-(1-naphthyl)ureido]-1H-pyrazole-4-carboxylic acid ethyl ester] | 
 | 0.0098 ± 0.0009 | CCOC(=O)c1cnn(CC(C)O)c1NC(=O)Nc1cccc2ccccc12 (centres unmarked) [Ih, 1-(2-hydroxypropyl)-5-[3-(1-naphthyl)ureido]-1H-pyrazole-4-carboxylic acid ethyl ester] | 
 | 0.015 ± 0.0011 | CCOC(=O)c1cnn(CC(C)O)c1NC(=O)NCc1ccccc1 (centres unmarked) [Ic, 1-(2-hydroxypropyl)-5-(3-benzylureido)-1H-pyrazole-4-carboxylic acid ethyl ester] | 
1.9 ± 0.13 | 0.0032 ± 0.0004 | CCOC(=O)c1cnn(CC(O)CC)c1NC(=O)Nc1ccc(F)cc1 (centres unmarked) [In, 1-(2-hydroxybutyl)-5-[3-(4-fluorophenyl)ureido]-1H-pyrazole-4-carboxylic acid ethyl ester] | 
0.0016 ± 0.0002 | 0.12 ± 0.012 | CCOC(=O)c1cnn(CC(O)CC)c1NC(=O)Nc1ccccc1F (centres unmarked) [Il, 1-(2-hydroxybutyl)-5-[3-(2-fluorophenyl)ureido]-1H-pyrazole-4-carboxylic acid ethyl ester] | 
 |  | COC(=O)[C@H](Cc1ccccc1)NC(=O)[C@H](CC(C)C)NC(=O)[C@H](CCSC)NC=O [fMLP-OMe] | chemotactic index (C.I.) ([1]; chemoattractant alone at 10^-9): 1.2
9.6 ± 1 | 0.012 ± 0.0012 | CCOC(=O)c1cnn(CC(O)CC)c1NC(=O)Nc1cccc2ccccc12 (centres unmarked) [Io, 1-(2-hydroxybutyl)-5-[3-(1-naphthyl)ureido]-1H-pyrazole-4-carboxylic acid ethyl ester] | 
 |  | CCOC(=O)c1cnn(CC(C)O)c1NC(=O)Nc1cccc(F)c1 (centres unmarked) [If, 1-(2-hydroxypropyl)-5-[3-(3-fluorophenyl)ureido]-1H-pyrazole-4-carboxylic acid ethyl ester] | IC50 [1, 4]: > 10 µM; Percentage in brackets after the fMLP CI50 bound ([1]; fMLP-OMe 10^-9 M): 60%
0.36 ± 0.06 | 0.00019 ± 1e-05 | CCOC(=O)c1cnn(CC(O)CC)c1NC(=O)Nc1cccc(F)c1 (centres unmarked) [Im, 1-(2-hydroxybutyl)-5-[3-(3-fluorophenyl)ureido]-1H-pyrazole-4-carboxylic acid ethyl ester] | 
0.2 ± 0.06 |  | CCOC(=O)c1cnn(CC(C)O)c1NC(=O)Nc1ccc(F)cc1 (centres unmarked) [Ig, 1-(2-hydroxypropyl)-5-[3-(4-fluorophenyl)ureido]-1H-pyrazole-4-carboxylic acid ethyl ester] | IC50 [1, 4]: > 10 µM; Percentage in brackets after the fMLP CI50 bound ([1]; fMLP-OMe 10^-9 M): 55%
0.0074 ± 0.0002 |  | CCOC(=O)c1cnn(CC(O)CC)c1NC(=O)NCc1ccccc1 (centres unmarked) [Ij, 1-(2-hydroxybutyl)-5-(3-benzylureido)-1H-pyrazole-4-carboxylic acid ethyl ester] | IC50 [1, 4]: > 10 µM; Percentage in brackets after the fMLP CI50 bound ([1]; fMLP-OMe 10^-9 M): 54%
 |  | CCOC(=O)c1cnn(CC(C)O)c1NC(=O)NN1CCN(Cc2ccccc2)CC1 (centres unmarked) [Id, 1-(2-hydroxypropyl)-5-[3-(4-benzyl)piperazinylureido]-1H-pyrazole-4-carboxylic acid ethyl ester] | Percentage in brackets after the fMLP CI50 bound ([1]; fMLP-OMe 10^-9 M): 63%; IC50 ([1]; fMLP-OMe 10^-9 M, unit µM, highest tested concentration 10^-5 M): > 10 µM
 | 0.1 ± 0.0103 | CCOC(=O)c1cnn(CC(C)O)c1NC(=O)Nc1ccccc1F (centres unmarked) [Ie, 1-(2-hydroxypropyl)-5-[3-(2-fluorophenyl)ureido]-1H-pyrazole-4-carboxylic acid ethyl ester] | 
